Assay results published in patent US4216221A, “1,3-Disubstituted (2-thio)ureas” (U C B, Societe Anonyme, priority 1977, dated 1980).
Where two headings read alike, the source gives them in different places.

Experiments:
[1] = active avoidance test (memory retention; paw withdrawal reaction threshold); type: in vivo, rat; conditions: for minimal effective dose: sc
Text: The pressure at which the withdrawal reaction takes place is called the reaction threshold. This threshold is expressed by the figure read on a scale graduated in cm of the apparatus used (Analgesy-meter Ugo Basile, Milan) and thus corresponds to the minimum pressure which brings about withdrawal when applied to the animal's paw.

[2] = spinal fixation time (spinal section 35 minutes after onset of asymmetry); type: in vivo, rat
Text: (b) The action on mnemic processes is also shown by the reduction of the spinal fixation time, a test which has been described in literature (T. J. CHAMBERLAIN et al., J.Neuro-Physiol.26, (1963,no. 4), 662-673; C. GIURGEA and F. MOURAVIEFF-LESUISSE, Arch.Int.Pharmacodyn.Therap.191, (1971,no. 2), 279) as an elementary memory model and which provides pharmacological reactivity in good correlation with clinical physiopathology. In the rat, after unilateral lesion of the cerebellum, there is a postural asymmetry of the hind paws. This asymmetry may persist, even after spinal section, if the animal has passed a sufficiently long time in this position.
This time, which is called the spinal fixation time, is 45 minutes under the experimental conditions applied here.
On the other hand, if the spinal section is performed before the expiry of this period of time, for example 35 minutes after the onset of the asymmetry, the latter disappears.
No animal treated with placebos retains asymmetry under these conditions.
Inversely, any product which allows the rats to retain the asymmetry (thus effecting spinal fixation) when the spinal section is performed after 35 minutes, is considered to be active.
The compounds were all tested at a dosage of […]. The minimum active doses were not sought, except for compound No. 1 and for piracetam. […] By "number of animals" is to be understood the number of animals which responded positively to the test, in relation to the number of animals tested at the indicated dose: […]

[3] = Protection against aggressions of the hypoxic type (mortality induced by oxydipentonium chloride); type: in vivo, mice; conditions: Mus musculus, ip, 1 h, read-out: Proportion of survivors, Animals treated
Procedure: Protection against aggressions of the hypoxic type was shown by a reduction of mortality induced by a curarizer, the action time of which is short, namely oxydipentonium chloride (Brevatonal). At the doses used, this curarizer brings about respiratory depression which, in turn, gives rise to a hypoxi-hypercapnic syndrome.
A compound capable of protecting the brain during this short period of hypoxia ensures survival. The compounds are administered to groups of 10 mice one hour before the injection of the curarizer. At the same time, a control group of 10 mice received physiological salt solution before the curarizer. This test has also been developed in our laboratories (see S. LEVIS et al., Arch.Int.Pharmacodyn.Therap.93, (1953,no. 1), 46-54).

[4] = Toxicity by intraperitoneal administration (Irwin's test); type: in vivo; conditions: for Dose mg/kg (dose which brings about the death of one animal out of eight in Irwin's test): mouse
Text: The compounds tested have a remarkably low toxicity.
*Dose which brings about the death of one animal out of eight in Irwin's
test (S. IRWIN, Gordon Research Conference on Medicinal Chemistry, Colby
Junior College, New London, 1959).

[5] = Toxicity when administered intravenously or orally (LD50); conditions: in vivo, rat
Text: Furthermore, in the rat, the compounds tested also have a low toxicity when administered intravenously or orally, as shown by the results given in the following Table V: […]

[6] = rat, subcutaneous, tested 24 hours later, read-out: Active dose mM/kg (minimum dose lowering the stimulus below 11 graduations; mM = millimole)
[7] = rat, subcutaneous, tested 24 hours later, read-out: Active dose mg/kg (minimum dose lowering the stimulus below 11 graduations)
[8] = Rattus norvegicus, ip, read-out: Active dose mM/kg (minimum active dose)
[9] = Rattus norvegicus, ip, read-out: Active dose mg/kg (minimum active dose)
[10] = iv, i.v., read-out: LD50 mg/kg (rat)
[11] = iv, i.v., read-out: LD50 - mM/kg
[12] = po, per os, read-out: LD50 mg/kg (rat)
[13] = po, per os, read-out: LD50 - mM/kg
[14] = ip, 35 min, rat, intraperitoneal, 0.32 mM/kg, read-out: Number of animals which responded positively to the test, in relation to the number of animals tested (converted)

Row | Structure (SMILES) | minimal effective dose [1, 6] [µmol/kg] | minimal effective dose [1, 7] [mg/kg] | Dose mM/kg - mouse (dose which brings about the death of one animal out of eight in Irwin's test) [4] [mM/kg] | Dose mg/kg (dose which brings about the death of one animal out of eight in Irwin's test) [4] [mg/kg] | responders at 320 µM, 320 µmol/kg [2, 14] [%] | other results
1 | O=C(NCN1CCCC1=O)NCN1CCCC1=O [Compound No. 1, 1,3-bis[(2-oxo-pyrrolidino)methyl]-urea] | 0.01 | 0.0025 | > 6 | > 1530 | – | minimal effective dose [2, 8]: 100 µmol/kg; minimal effective dose [2, 9]: 25 mg/kg; responders at 100 µM, 25 mg/kg ([2]; ip, 35 min, rat, intraperitoneal, 0.1 mM/kg (25.0 mg/kg), read-out: Number of animals which responded positively to the test, in relation to the number of animals tested (converted)): 63.6%; activity relative to piracetam (spinal fixation time) ([2]; rat, intraperitoneal): more active than piracetam; responders at 32 µM, 32 µmol/kg [3]: 70%; responders at 100 µM, 100 µmol/kg [3]: 60%; responders at 2.5 mg/kg [3]: 33.3%; LD50 [5, 10]: > 5600 mg/kg; LD50 [5, 11]: > 22000 µmol/kg; LD50 [5, 12]: > 10000 mg/kg; LD50 [5, 13]: > 39000 µmol/kg
2 | O=C(NCN1CCCCCC1=O)NCN1CCCCCC1=O [Compound No. 4, 1,3-bis[(hexahydro-2-oxo-1H-azepin-1-yl)methyl]-urea] | 0.005 | 0.0015 | 3 | 930 | 66.7 | –
3 | CC1C(=O)N(CNC(=O)NCN2CC(c3ccc(Cl)cc3)C(C)C2=O)CC1c1ccc(Cl)cc1 (stereo not shown) [Compound No. 7, 1,3-bis[(4-p-chlorophenyl-3-methyl-2-oxo-pyrrolidino)methyl]-urea] | 5 | 1.01 | > 3 | > 1509 | 66.7 | –
4 | CC1CCC(=O)N1CNC(=O)NCN1C(=O)CCC1C (stereo not shown) [Compound No. 8, 1,3-bis[(5-methyl-2-oxo-pyrrolidino)methyl]-urea] | 5 | 1.41 | > 3 | > 746 | 57.1 | –
5 | CC1CC(=O)N(CNC(=O)NCN2C(=O)CC(C)C2C)C1C (stereo not shown) [compound 14, 1,3-bis[(4,5-dimethyl-2-oxo-pyrrolidino)methyl]-urea] | 10 | 3.1 | > 3 | 930 | – | responders at 100 µM, 100 µmol/kg ([3]; mice, intraperitoneal, 0.1 mM/kg, one hour before the curarizer, control animals 3/20 (1), 1/10 (2, 18, 26), 0/10 (14, 32), 2/10 (28)): 50%
6 | O=C(NCCN1CCCC1=O)NCCN1CCCC1=O [compound 20, 1,3-bis[2-(2-oxo-pyrrolidino)ethyl]-urea] | 0.05 | 0.014 | > 3 | > 846 | 42.9 | –
7 | CCC(CNC(=O)NCC(CC)N1CCCC1=O)N1CCCC1=O (stereo not shown) [compound 22] | 0.02 | 0.0067 | > 3 | > 1014 | 71.4 | –
8 | O=C(NCCCN1CCCC1=O)NCCCN1CCCC1=O [compound 23, 1,3-bis[3-(2-oxo-pyrrolidino)propyl]-urea] | – | – | > 3 | 931.2 | 50 | –
9 | O=C1CCC(c2ccc(Cl)cc2)CN1CNC(=S)NCN1CC(c2ccc(Cl)cc2)CCC1=O (stereo not shown) [compound 24, 1,3-bis[(5-p-chlorophenyl-2-oxo-piperidino)methyl]-2-thiourea] | – | – | > 3 | > 1039 | 42.9 | –
10 | CC1CCN(CNC(=O)NCN2CCC(C)C2=O)C1=O (stereo not shown) [compound 34, 1,3-bis[(3-methyl-2-oxo-1-pyrrolidino)methyl]-urea] | – | – | > 6 | > 1692 | 50 | –
11 | NC(=O)CN1CCCC1=O [piracetam, 2-oxo-1-pyrrolidineacetamide, reference compound] | – | – | – | – | – | minimal effective dose ([1]; Rattus norvegicus, 24 h, read-out: Active dose mM/kg (minimum dose lowering the stimulus below 11 graduations; mM = millimole)): 2.5 µmol/kg; minimal effective dose ([1]; Rattus norvegicus, 24 h, read-out: Active dose mg/kg (minimum dose lowering the stimulus below 11 graduations)): 3.5 mg/kg; degree of retention ([1]; rat, compared with control animals): significant degree of retention; responders at 320 µM, 320 µmol/kg ([2]; Rattus norvegicus, ip, 35 min, read-out: Number of animals which responded positively to the test, in relation to the number of animals tested): 55.6%; minimal effective dose [2, 8]: 320 µmol/kg; minimal effective dose [2, 9]: 45 mg/kg; responders at 320 µM, 320 µmol/kg [3]: 10%; responders at 142 mg/kg [3]: 40%; responders at 454 mg/kg ([3]; mice, intraperitoneal, 454 mg/kg (3.2 mM/kg), one hour before the curarizer, control animals 1/10): 80%; LD50 [5, 10]: > 8000 mg/kg; LD50 [5, 11]: > 56000 µmol/kg; LD50 [5, 12]: > 10000 mg/kg; LD50 [5, 13]: > 70000 µmol/kg
